Test results taken from ChEMBL document CHEMBL1153871, “Antiplasmodial and antitrypanosomal activities of aminobicyclo[2.2.2]octyl omega-aminoalkanoates” (Eur J Med Chem, 2009).

Legend:
[1] = tested on: Plasmodium falciparum; assay: Antimalarial activity against chloroquine and pyrimethamine-resistant Plasmodium falciparum K1; type: functional, organism-based
[2] = tested on: L6; assay: Cytotoxicity against rat L6 cells; type: cell-based
[3] = tested on: Trypanosoma brucei rhodesiense; assay: Antitrypanosomal activity against Trypanosoma brucei rhodesiense STIB900 by microplate assay; type: functional, organism-based
[4] = Selectivity index, ratio of IC50 for rat L6 cells to IC50 for Trypanosoma brucei rhodesiense STIB900; type: toxicity, cell-based; settings: read-out: Ratio IC50

Row | Compound | IC50 ([1]; Plasmodium falciparum, K1) | IC50 ([2]; Rattus norvegicus, L6) | IC50 ([3]; Trypanosoma brucei, STIB900) | selectivity ratio [4] | IC50 [1] | IC50 ([2]; l6) | IC50 [3]
1 | CN(C)C12CC(OC(=O)CCN3CCCC3)C(C(c3ccccc3)C1)C(c1ccccc1)C2 (racemic) | 550 nM | 26000 nM | 76 nM | 341 | – | – | –
2 | O=C(CN1CCCCC1)OC1CC2(N3CCCCC3)CC(c3ccccc3)C1C(c1ccccc1)C2 (racemic) | – | – | – | – | 1410 nM | > 185000 nM | 5420 nM
3 | O=C(CCN1CCC(O)CC1)OC1CC2(N3CCCC3)CC(c3ccccc3)C1C(c1ccccc1)C2 (racemic) | 1910 nM | 35600 nM | 1430 nM | – | – | – | –
4 | O=C(CCN1CCCCC1)OC1CC2(N3CCCC3)CC(c3ccccc3)C1C(c1ccccc1)C2 (racemic) | 280 nM | 17800 nM | 310 nM | – | – | – | –
5 | O=C(CCN1CCCCC1)OC1CC2(N3CCCCC3)CC(c3ccccc3)C1C(c1ccccc1)C2 (racemic) | 260 nM | 54600 nM | 910 nM | – | – | – | –
6 | O=C(CN1CCC(O)CC1)OC1CC2(N3CCCC3)CC(c3ccccc3)C1C(c1ccccc1)C2 (racemic) | 860 nM | 93400 nM | 1050 nM | – | – | – | –
7 | CCN(CC)CCC(=O)OC1CC2(N3CCCC3)CC(c3ccccc3)C1C(c1ccccc1)C2 (racemic) | 300 nM | 19200 nM | 110 nM | – | – | – | –
8 | CN(C)C12CC(OC(=O)CCN3CCCCC3)C(C(c3ccccc3)C1)C(c1ccccc1)C2 (racemic) | 400 nM | 25800 nM | 210 nM | – | – | – | –
9 | CCN(CC)CC(=O)OC1CC2(N3CCCCC3)CC(c3ccccc3)C1C(c1ccccc1)C2 (racemic) | – | – | – | – | 770 nM | 61300 nM | 1530 nM
10 | O=C(CN1CCC(O)CC1)OC1CC2(N3CCCCC3)CC(c3ccccc3)C1C(c1ccccc1)C2 (racemic) | – | > 179000 nM | 3810 nM | – | – | – | –
11 | O=C(CCN1CCC(O)CC1)OC1CC2(N3CCCCC3)CC(c3ccccc3)C1C(c1ccccc1)C2 (racemic) | 170 nM | 28500 nM | 980 nM | – | – | – | –
12 | CCN(CC)CCC(=O)OC1CC2(N(C)C)CC(c3ccccc3)C1C(c1ccccc1)C2 (racemic) | 430 nM | 23600 nM | 110 nM | – | – | – | –
13 | O=C(CCN1CCCC1)OC1CC2(N3CCCCC3)CC(c3ccccc3)C1C(c1ccccc1)C2 (racemic) | 250 nM | 12500 nM | 380 nM | – | – | – | –
14 | O=C(CCN1CCCC1)OC1CC2(N3CCCC3)CC(c3ccccc3)C1C(c1ccccc1)C2 (racemic) | 370 nM | 21900 nM | 120 nM | – | – | – | –
15 | Nc1nc(N)nc(Nc2ccc([As]3SCC(CO)S3)cc2)n1 (stereo not given) [MELARSOPROL] | – | – | 5 nM | – | – | – | –
16 | CN(C)C12CC(OC(=O)CN3CCC(O)CC3)C(C(c3ccccc3)C1)C(c1ccccc1)C2 (racemic) | 2160 nM | 102000 nM | 2060 nM | – | – | – | –
17 | O=C(CN1CCCC1)OC1CC2(N3CCCCC3)CC(c3ccccc3)C1C(c1ccccc1)C2 (racemic) | – | – | – | – | 740 nM | 52000 nM | 880 nM
18 | CCN(CC)CCC(=O)OC1CC2(N3CCCCC3)CC(c3ccccc3)C1C(c1ccccc1)C2 (racemic) | 190 nM | 22900 nM | 150 nM | – | – | – | –
19 | CN(C)C12CC(OC(=O)CCN3CCC(O)CC3)C(C(c3ccccc3)C1)C(c1ccccc1)C2 (racemic) | 2250 nM | 89200 nM | 950 nM | – | – | – | –
